In test [1] the test system is L5178Y cells (MTA phosphorylase-containing). Description: Growth inhibition of L5178Y cells. Type of test: cell-based, mouse. The settings on record: 48 h. The method, then: (§1) L1210, L5178Y and MOLT-4 cell lines were grown in RPMI 1640 and 10% Nu Serum (Collaborative Research Inc., Lexington, Mass.) and CCRF-CEM cells were grown in 10% Horse Serum (Gibco Laboratories, Grand Island, N.Y.) and maintained as previously described for suspension cultures by Pera et al. in Cancer Res. 46, 1148, 1986. Cell cultures (0.3×10^5 cells/ml) were treated with each compound at 0.1 to 1000 μM to determine the concentration that inhibited growth by 50% (IC50) at 48 hr for the L1210 and L5178Y cells and at 96 hr for the CCRF-CEM and MOLT-4 cells. The incubation times allowed approximately 4 cell doublings in each cell line. All compounds were freshly prepared prior to treatment by dissolving in DMSO and diluting in serum-free media. Cells were counted by electron particle counting (Model XF' Coulter Counter; Coulter Electronics, Hialeah, Fla.).
(§2) For each compound, the concentrations required to inhibit cell growth by 50% (IC50 values) are shown in Table 7 for two murine leukemic cell lines, L1210 and L5178Y [MTA phosphorylase-deficient and MTA phosphorylase-containing, respectively] and two human leukemic cell lines, CCRF-CEM and MOLT-4 [MTA phosphorylase-deficient and MTA phosphorylase-containing, respectively]. ETA, MFETA, HETA and PTA had lower IC50 values in the L5178Y cells than in the L1210 cells. […] This differential is consistent with the possibility that, in L5178Y cells, MFETA is cleaved by MTA phosphorylase to the growth inhibitory metabolite, 5-monofluoroethylthioribose-1-phosphate (MFETR-1-P).

Test [2] concerns the target T1, Mouse Liver MTA Phosphorylase (Mus musculus, UniProt Q9CQ65).
T1 sequence (Q9CQ65 1-283): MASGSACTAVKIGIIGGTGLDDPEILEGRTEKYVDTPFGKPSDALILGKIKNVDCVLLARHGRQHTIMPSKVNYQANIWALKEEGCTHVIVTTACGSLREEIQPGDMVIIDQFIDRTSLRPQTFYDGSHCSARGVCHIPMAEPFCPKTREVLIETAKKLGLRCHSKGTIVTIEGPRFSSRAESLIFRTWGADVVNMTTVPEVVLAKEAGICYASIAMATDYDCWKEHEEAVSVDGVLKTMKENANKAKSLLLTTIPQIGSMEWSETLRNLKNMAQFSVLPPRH
Description: Mouse liver MTA phosphorylase substrate/inhibitor assay. Type of test: biochemical. The settings on record: for Substrate (% Control): substrate activity relative to MTA. As for the experimental part:
^a MTA phosphorylase activity was assayed as described in Sufrin et

For test [3], the target named is T2, T. b. brucei MTA phosphorylase (Trypanosoma brucei, UniProt Q57XS4).
T2 construct: MTA or analogs as substrates
T2 sequence (Q57XS4 entry or part of it): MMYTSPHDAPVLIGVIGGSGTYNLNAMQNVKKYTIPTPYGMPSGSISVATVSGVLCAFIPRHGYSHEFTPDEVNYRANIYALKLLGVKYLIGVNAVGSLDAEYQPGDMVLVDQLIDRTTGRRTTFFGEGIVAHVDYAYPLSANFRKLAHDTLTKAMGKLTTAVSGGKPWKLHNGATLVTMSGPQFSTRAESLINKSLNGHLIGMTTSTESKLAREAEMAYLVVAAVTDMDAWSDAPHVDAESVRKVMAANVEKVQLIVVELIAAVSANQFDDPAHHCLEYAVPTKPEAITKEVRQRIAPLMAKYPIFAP
Description: T. b. brucei MTA phosphorylase substrate assay. The settings on record: relative to MTA. Type of test: biochemical. The method, then: ^a MTA phosphorylase was assayed according to Ghoda et al., using 200
μM MTA (saturating) or analogs as substrates. Specific activities of
the dialyzed enzyme preparations were with 50 mM PO4, 104.97 n
moles/mg protein/h; without PO4, 28.27 n moles/mg protein/h. Results
are expressed as percent activity compared to as substrate with and
without PO4, respectively.

The test system of test [4] is L1210 cells (MTA phosphorylase-deficient). Description: Growth inhibition of L1210 cells. Type of test: cell-based, mouse. The settings on record: L1210, 48 h. As for the experimental part: as §1, §2
The subject of test [5] is MOLT-4 cells (MTA phosphorylase-containing). Description: Growth inhibition of MOLT-4 cells. Type of test: cell-based, human. The settings on record: MOLT-4, 96 h. The method, then: as §1, §2
The subject of test [6] is CCRF-CEM cells (MTA phosphorylase-deficient). Description: Growth inhibition of CCRF-CEM cells. Type of test: cell-based, human. The settings on record: 96 h. As for the experimental part:
as §1, §2

Test [7] has as its system T. b. brucei procyclic trypanosomes (Lab 110 EATRO strain). Description: In vitro antitrypanosomal activity, procyclic trypanosomes in T2 medium. Type of test: cell-based, Trypanosoma brucei brucei. The settings on record: 3-5 days. As for the experimental part: The antitrypanosomal effects of HETA and other nucleosides were examined in the Lab 110 EATRO strain of T. b. brucei in culture.
Cells were cultured as described in Bacchi et al. Exp. Parasitol. 68, 392, 1989. Cells were then grown in the presence of the compounds for 3-5 days. Drugs were filtered, sterilized and added aseptically. Control cells achieved a maximum density of 1.5-3.5×10^7 /ml. Hemocytometer counts were made daily and the results were expressed as a percent of control growth. IC50 plots were obtained by graphing log (drug) vs. percent growth inhibition.
Trypanocidal Activity of MTA and MTR Analogs
against T. b. brucei procyclic trypanosomes in T2 medium.

The test system of test [8] is P. falciparum. Description: In vitro antimalarial activity of HETA. Type of test: cell-based, Plasmodium falciparum. The settings on record: P. falciparum in vitro screen.
In test [9] the test system is T. b. brucei LAB 110 EATRO. Description: In vivo antitrypanosomal activity, LAB EATRO mouse infection model. The settings on record: 7 days, miniosmotic pump. The method, then:
^a Animals were treated with surgically implanted miniosmotic pumps
loaded as per manufacturers instructions with MTA, HETA or MFETA suspende

The IC50 is the midpoint of a concentration-inhibition curve. High values mean weaker potency, low ones greater potency. For orientation: Ki means the equilibrium dissociation constant of an inhibitor or competing ligand from its target. Lower therefore signals a stronger hold on the target.

Regarding `Nc1ncnc2c1ncn2[C@@H]1O[C@H](CSCCCF)[C@@H](O)[C@H]1O` [MFPTA, reference compound], the IC50 was 600 µM in [1] (Mus musculus); 600 µM in [4] (Mus musculus); 25 µM in [5] (Homo sapiens); 160 µM in [6] (Homo sapiens); 120 µM in test [7] (Trypanosoma brucei). In addition, the “Substrate (% Control)” value in test [2] came out at 66 % Control. The “Percent Control Activity” value in test [3] (+50 mM PO4, 200 μM substrate) is reported as 47.5%; in test [3] (No PO4, 200 μM substrate), 116.4%.
As for `Nc1ncnc2c1ncn2[C@@H]1O[C@H](CSCCCO)[C@@H](O)[C@H]1O` [HPTA], the “Percent Control Activity” value in [3] (+50 mM PO4, 200 μM substrate) worked out at 72.5%; in [3] (No PO4, 200 μM substrate), 101.8%. For the same compound, the IC50 in [7] (Trypanosoma brucei) was determined as 170 µM.
Consider `N=C(N)c1ccc(OCCCCCOc2ccc(C(=N)N)cc2)cc1` [PENTAMIDINE], for which the midpoint of inhibition in test [7] (Trypanosoma brucei), the IC50, lay at 0.2 µM.
Take `CCSC[C@H]1O[C@@H](n2cnc3c(N)ncnc32)[C@H](O)[C@@H]1O` [ETA, reference compound]: the IC50 in [1] (Mus musculus) worked out at 250 ± 100 µM; in test [4] (Mus musculus), 800 ± 100 µM; in [5] (Homo sapiens) it was 20 ± 10 µM; in test [6] (Homo sapiens) it was 200 ± 100 µM; in test [7] (Trypanosoma brucei) it was 138 µM. Further, in test [2], the “Substrate (% Control)” value was determined as 95 % Control. Also, the “Percent Control Activity” value turned out to be 76.2% in test [3] (+50 mM PO4, 200 μM substrate) and 100% in [3] (No PO4, 200 μM substrate). Further, in [8], the “growth of the microorganism inhibited in an in vitro screen” value was “inhibited”.
Regarding `CSC[C@H]1O[C@@H](n2cnc3c(N)ncnc32)[C@H](O)[C@@H]1O` [MTA, 5'-deoxy-5'-methylthioadenosine, reference compound], the IC50 in test [1] (Mus musculus) turned out to be 200 ± 45 µM; in [4] (Mus musculus), 850 ± 120 µM; in test [5] (Homo sapiens) it was 11 ± 7 µM; in test [6] (Homo sapiens), 150 ± 60 µM. In addition, in [2], the “Substrate (% Control)” value was found to be 100 % Control. In addition, the “Percent Control Activity” value was 100% in test [3] (+50 mM PO4, 200 μM substrate) and 100% in test [3] (No PO4, 200 μM substrate). Moreover, the “% Cured” value in [9] (25 mg/kg/day), in test [9] (50 mg/kg/day) and in test [9] (100 mg/kg/day) was 0% throughout. Besides, the “MSD (mean survival in days of animals dying of infection)” value in test [9] (25 mg/kg/day), in test [9] (50 mg/kg/day) and in [9] (100 mg/kg/day) was 5.0 days in each case. The “Number Cured Total” value in test [9] (25 mg/kg/day), in test [9] (50 mg/kg/day) and in test [9] (100 mg/kg/day) was 0/5 throughout.
`N=C(N)c1ccc(N=NNc2ccc(C(=N)N)cc2)cc1` [BERENIL] registered an IC50 in test [7] (Trypanosoma brucei) of 0.2 µM.
On to `CCCSC[C@H]1O[C@@H](n2cnc3c(N)ncnc32)[C@H](O)[C@@H]1O` [PTA, reference compound], for which the half-maximal inhibitory concentration (IC50) was 500 µM in test [1] (Mus musculus); 1000 µM in test [4] (Mus musculus); 45 µM in [5] (Homo sapiens); 160 µM in [6] (Homo sapiens); 46 µM in test [7] (Trypanosoma brucei). Also, in test [2], the “Substrate (% Control)” value is 102 % Control. For the same compound, the “Percent Control Activity” value is recorded as 57.5% in test [3] (+50 mM PO4, 200 μM substrate) and 96.4% in test [3] (No PO4, 200 μM substrate).
With `Nc1ncnc2c1ncn2[C@@H]1O[C@H](CSCCBr)[C@@H](O)[C@H]1O` [BETA, 5'-deoxy-5'-(bromoethylthio)adenosine], the IC50 worked out at 150 µM in [1]; 150 µM in test [4]; 25 ± 10 µM in test [5]; 250 ± 50 µM in [6]; 0.5 µM in test [7]. Also, in test [2], the affinity, expressed as Ki, was 6.5 µM. The “Substrate (% Control)” value in test [2] was determined as 38 % Control. The “Percent Control Activity” value in test [3] (+50 mM PO4, 200 μM substrate) is given as 88.8%; in [3] (No PO4, 200 μM substrate) it was 120%.
